# Results reported in ChEMBL document CHEMBL4732174, “Discovery of 6-(7-Nitro-2,1,3-benzoxadiazol-4-ylthio)hexanol Derivatives as Glutathione Transferase Inhibitors with Favorable Selectivity and Tolerated Toxicity” (J Med Chem, 2021).
# pIC50, pKi: −log10 of the molar value.
# What was measured:
# 143B [1] = assay: Induction of cell cycle arrest in human 143B cells assessed as accumulation at G1 phase at 2.5 uM incubated for 48 hrs by propidium iodide staining based flow cytometry (reference value: 66.62 %); format: functional
# [2] = Toxicity in BALB/c nude mouse xenografted with human 143B cells assessed as kidney edema at 5 to 20 mg/kg, po administered once daily for 28 consecutive days by hematoxylin-eosin staining based assay; format: organism-based; details: in vivo, 672 h, dose 5-20 mg/kg, time 28 day
# [3] = Toxicity in BALB/c nude mouse xenografted with human 143B cells assessed as spleen edema at 5 to 20 mg/kg, po administered once daily for 28 consecutive days by hematoxylin-eosin staining based assay; format: organism-based; details: in vivo, 672 h, dose 5-20 mg/kg, time 28 day
# [4] = Toxicity in BALB/c nude mouse xenografted with human 143B cells assessed as liver edema at 5 to 20 mg/kg, po administered once daily for 28 consecutive days by hematoxylin-eosin staining based assay; format: organism-based; details: in vivo, 672 h, dose 5-20 mg/kg, time 28 day
# [5] = target: T1, Glutathione S-transferase P (Homo sapiens, UniProt P09211); assay: Time dependent inhibition of GSTP1-1 (unknown origin) assessed as inhibition constant using reduced GSH and CDNB as substrate by spectrophotometric method
# Target sequence in this assay (P09211 whole entry): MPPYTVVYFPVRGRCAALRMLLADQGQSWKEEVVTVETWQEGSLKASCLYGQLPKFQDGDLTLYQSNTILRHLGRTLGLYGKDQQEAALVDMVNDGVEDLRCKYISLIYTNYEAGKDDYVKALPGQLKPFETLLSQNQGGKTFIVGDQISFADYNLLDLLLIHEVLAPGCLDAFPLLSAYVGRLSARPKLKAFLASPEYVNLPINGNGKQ
# 143B [6] = assay: Antitumor activity against human 143B cells xenografted in BALB/c nude mouse assessed as tumor growth inhibition at 5 mg/kg, po administered once daily for 28 consecutive days relative to control; format: functional; details: 672 h, time 28 day, read-out: TGI
# [7] = target: T1, Glutathione S-transferase P; details: dose 0.1-5 µM
# Target sequence in this assay (P09211 2-210 limits assumed): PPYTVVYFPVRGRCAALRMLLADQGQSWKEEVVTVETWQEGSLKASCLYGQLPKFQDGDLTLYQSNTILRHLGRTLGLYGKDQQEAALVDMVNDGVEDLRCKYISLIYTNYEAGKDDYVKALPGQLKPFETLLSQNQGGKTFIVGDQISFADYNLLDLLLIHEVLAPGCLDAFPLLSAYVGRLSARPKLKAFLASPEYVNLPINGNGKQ
# [8] = Volume of distribution in Sprague-Dawley rat at 80 mg/kg, po administered as single dose measured upto 48 hrs by LC-MS/MS analysis; details: in vivo
# 143B [9] = assay: Induction of cell cycle arrest in human 143B cells assessed as accumulation at S phase at 2.5 uM incubated for 48 hrs by propidium iodide staining based flow cytometry (reference value: 32.03 %); format: functional
# 143B [10] = assay: Induction of cell cycle arrest in human 143B cells assessed as accumulation at G1 phase at 10 uM incubated for 48 hrs by propidium iodide staining based flow cytometry (reference value: 66.62 %); format: functional
# [11] = Toxicity in BALB/c nude mouse xenografted with human 143B cells assessed as cellular inflammation in heart at 5 to 20 mg/kg, po administered once daily for 28 consecutive days by hematoxylin-eosin staining based assay; format: organism-based; details: in vivo, 672 h, dose 5-20 mg/kg, time 28 day
# 143B [12] = assay: Induction of apoptosis in human 143B cells assessed as apoptotic cells at 5 uM incubated for 24 hrs by Annexin V-FITC/PI double staining based flow cytometric analysis (reference value: 3.9%); format: functional
# [13] = Toxicity in BALB/c nude mouse xenografted with human 143B cells assessed as necrosis in kidney at 5 to 20 mg/kg, po administered once daily for 28 consecutive days by hematoxylin-eosin staining based assay; format: organism-based; details: in vivo, 672 h, dose 5-20 mg/kg, time 28 day
# 143B [14] = assay: Induction of cell cycle arrest in human 143B cells assessed as accumulation at S phase at 5 uM incubated for 48 hrs by propidium iodide staining based flow cytometry (reference value: 32.03 %); format: functional
# [15] = Toxicity in BALB/c nude mouse xenografted with human 143B cells assessed as necrosis in lung at 5 to 20 mg/kg, po administered once daily for 28 consecutive days by hematoxylin-eosin staining based assay; format: organism-based; details: in vivo, 672 h, dose 5-20 mg/kg, time 28 day
# 143B [16] = assay: Antitumor activity against human 143B cells xenografted in BALB/c nude mouse assessed as tumor growth inhibition at 20 mg/kg, po administered once daily for 28 consecutive days relative to control; format: functional; details: 672 h, time 28 day, read-out: TGI
# [17] = rat, in vivo, po, 80 mg/kg, 48 h
# Description: Plasma clearance in Sprague-Dawley rat at 80 mg/kg, po administered as single dose measured upto 48 hrs by LC-MS/MS analysis
# [18] = Toxicity in BALB/c nude mouse xenografted with human 143B cells assessed as necrosis in liver at 5 to 20 mg/kg, po administered once daily for 28 consecutive days by hematoxylin-eosin staining based assay; format: organism-based; details: in vivo, 672 h, dose 5-20 mg/kg, time 28 day
# [19] = target: T2, Glutathione S-transferase Mu 2 (Homo sapiens, UniProt P28161); assay: Inhibition of GSTM2-2 (unknown origin) using reduced GSH and CDNB as substrate incubated for 10 mins followed by substrate addition by microplate reader analysis
# T2 sequence (P28161 whole entry): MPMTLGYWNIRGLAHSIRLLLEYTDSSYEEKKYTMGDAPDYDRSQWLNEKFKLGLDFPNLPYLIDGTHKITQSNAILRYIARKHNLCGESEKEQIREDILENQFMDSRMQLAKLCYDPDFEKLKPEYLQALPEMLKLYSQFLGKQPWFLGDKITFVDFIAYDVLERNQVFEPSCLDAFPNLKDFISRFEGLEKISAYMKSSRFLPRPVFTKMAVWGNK
# A549 = assay: Antiproliferative activity against human A549 cells assessed as inhibition of cell proliferation incubated for 72 hrs by MTT assay; format: functional, cell-based; details: A549, 72 h
# [20] = target: T1, Glutathione S-transferase P; assay: Inhibition of GSTP1-1 (unknown origin) using reduced GSH and CDNB as substrate incubated for 10 mins followed by substrate addition by microplate reader analysis
# Target sequence in this assay (P09211 whole entry): as the sequence (P09211 whole entry) above
# 143B [21] = assay: Induction of cell cycle arrest in human 143B cells assessed as accumulation at S phase at 10 uM incubated for 48 hrs by propidium iodide staining based flow cytometry (reference value: 32.03 %); format: functional
# 143B [22] = assay: Induction of cell cycle arrest in human 143B cells assessed as accumulation at G2 phase at 5 uM incubated for 48 hrs by propidium iodide staining based flow cytometry (reference value: 1.35 %); format: functional
# 143B [23] = assay: Induction of cell cycle arrest in human 143B cells assessed as accumulation at G2 phase at 2.5 uM incubated for 48 hrs by propidium iodide staining based flow cytometry (reference value: 1.35 %); format: functional
# [24] = Toxicity in BALB/c nude mouse xenografted with human 143B cells assessed as cellular inflammation in spleen at 5 to 20 mg/kg, po administered once daily for 28 consecutive days by hematoxylin-eosin staining based assay; format: organism-based; details: in vivo, 672 h, dose 5-20 mg/kg, time 28 day
# [25] = Toxicity in BALB/c nude mouse xenografted with human 143B cells assessed as lung edema at 5 to 20 mg/kg, po administered once daily for 28 consecutive days by hematoxylin-eosin staining based assay; format: organism-based; details: in vivo, 672 h, dose 5-20 mg/kg, time 28 day
# [26] = Toxicity in BALB/c nude mouse xenografted with human 143B cells assessed as body weight loss at 5 mg/kg, po administered once daily for 28 consecutive days and measured every 3 days; format: organism-based; details: in vivo, 672 h, time 28 day
# [27] = Toxicity in BALB/c nude mouse xenografted with human 143B cells assessed as necrosis in spleen at 5 to 20 mg/kg, po administered once daily for 28 consecutive days by hematoxylin-eosin staining based assay; format: organism-based; details: in vivo, 672 h, dose 5-20 mg/kg, time 28 day
# [28] = MRT (0 to infinity) in Sprague-Dawley rat at 80 mg/kg, po administered as single dose measured upto 48 hrs by LC-MS/MS analysis; details: in vivo
# 143B [29] = assay: Induction of apoptosis in human 143B cells assessed as apoptotic cells at 2.5 uM incubated for 24 hrs by Annexin V-FITC/PI double staining based flow cytometric analysis (reference value: 3.9%); format: functional
# L02 = assay: Cytotoxicity against human L02 cells assessed as reduction in cell viability incubated for 72 hrs by MTT assay; format: cell-based; details: L02, 72 h
# 143B [30] = assay: Antiproliferative activity against human 143B cells assessed as inhibition of cell proliferation incubated for 72 hrs by MTT assay; format: functional, cell-based
smiles,measurement,setting,value
CN(C)CCCNC(=O)CCC(=O)OCCCCCCSc1ccc([N+](=O)[O-])c2nonc12,Activity,143B [1],49.79%
same,Activity,[2],Non-Toxic
same,Activity,[3],Non-Toxic
same,Activity,[4],Non-Toxic
same,pKi,[5],6.77
same,inhibition in vivo at 5 mg/kg,143B [6],46.4%
same,Kinact,[7],0.17 min⁻¹
same,Vd,[8],7.62 L/kg
same,Activity,143B [9],40.75%
same,Activity,143B [10],48.67%
same,Activity,[11],Non-Toxic
same,Activity,143B [12],74%
same,Activity,[13],Non-Toxic
same,Activity,143B [14],34.94%
same,Activity,[15],Non-Toxic
same,inhibition in vivo at 20 mg/kg,143B [16],74.5%
same,CL,[17],3.85 L/h/kg
same,Activity,[18],Non-Toxic
same,pIC50,[19],7.05
same,pIC50,A549,5.80
same,pIC50,[20],6.80
same,Activity,143B [21],30.32%
same,Activity,143B [22],15.24%
same,Activity,143B [23],9.46%
same,Activity,[24],Non-Toxic
same,Activity,[25],Non-Toxic
same,Activity,[26],Non-Toxic
same,Activity,[27],Non-Toxic
same,MRT inf at 48 h,[28],6.54 h
same,Activity,143B [29],46.5%
same,pIC50,L02,5.37
same,pIC50,143B [30],5.93
